Read-outs that look alike come from different tables or passages of the source.
Columns and labels:
ABCG2 [1] = target: T1, ABCG2 (Homo sapiens, UniProt Q9UNQ0); assay: cell-based; set-up: full-length ABCG2-WT in MEF cells; species or system Abcg2-KO MEFs expressing human ABCG2-WT; Inhibition of ABCG2-mediated Hoechst 33342 efflux; intracellular Hoechst 33342 fluorescence accumulation, normalized to vector control; settings: 0.5 uM Hoechst 33342 substrate, 2 h, 37 °C; read-out: IC50 for transport inhibition in WT
T1 sequence (Q9UNQ0 1-655): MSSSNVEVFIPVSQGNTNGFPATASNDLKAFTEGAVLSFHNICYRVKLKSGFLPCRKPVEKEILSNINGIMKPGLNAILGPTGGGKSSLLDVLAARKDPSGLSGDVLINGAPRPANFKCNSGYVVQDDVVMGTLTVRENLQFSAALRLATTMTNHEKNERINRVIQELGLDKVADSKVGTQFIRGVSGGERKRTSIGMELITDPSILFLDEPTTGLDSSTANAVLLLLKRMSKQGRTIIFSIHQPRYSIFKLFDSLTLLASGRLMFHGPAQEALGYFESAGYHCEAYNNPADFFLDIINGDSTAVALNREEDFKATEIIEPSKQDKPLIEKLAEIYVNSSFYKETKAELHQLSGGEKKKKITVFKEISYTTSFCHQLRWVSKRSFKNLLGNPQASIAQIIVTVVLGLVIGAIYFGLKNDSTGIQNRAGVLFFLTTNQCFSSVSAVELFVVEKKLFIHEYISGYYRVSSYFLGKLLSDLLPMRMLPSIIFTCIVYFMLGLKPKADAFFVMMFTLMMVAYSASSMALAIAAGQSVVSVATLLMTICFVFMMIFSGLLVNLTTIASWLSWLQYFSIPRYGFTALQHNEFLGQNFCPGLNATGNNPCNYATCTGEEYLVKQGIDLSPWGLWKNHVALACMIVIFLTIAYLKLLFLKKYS
Experimental: The intracellular accumulation of fluorescent Hoechst 33342, pheophorbide a, chlorin e6, and purpurin 18, ABCG2 substrates, was used to determine the function of ABCG2. […] Thereafter, the medium was removed, and cells were washed twice with 200 μL ice-cold PBS and the fluorescence of Hoechst 33342 was then quantitatively determined with a Synergy H4 microplate reader (BioTek, Winooski, VT, USA) at an excitation wavelength of 355 nm and an emission wavelength of 460 nm. The accumulation of Hoechst 33342 was normalized to protein concentration as determined using the BCA Protein Assay Kit (Pierce, Rockford, IL, USA). The data were normalized by the proportion accumulated relative (%) to vector control. For the time-dependent Hoechst 33342 accumulation assay, 10 μM Hoechst 33342 was treated for different time periods (0.5, 1, 1.5, 2, 5, 10, 20, 30, 60, and 90 min). Relative intracellular Hoechst 33342 levels in the MEFs were normalized to vector control at 90 min. For the other fluorescent substrate accumulation assay, 0.5 μM pheophorbide a, 5 μM chlorin e6, or 5 μM purpurin 18 were treated for 1 h at 37 °C in the dark. The intracellular accumulation of pheophorbide a, purpurin 18, or chlorin e6 was measured at an excitation wavelength of 405 nm and an emission wavelength of 667 nm. […] Thereafter, the medium was removed and cells were washed twice with 1 mL ice-cold PBS. […] The total radioactivity was measured by liqu Apparent EC50 and IC50 values were calculated from dose-response data using nonlinear regression analysis. All experiments were independently repeated at least three times. […] Non-polar residues are grey, polar residues are green, and acidic residues are red.

ABCG2 [2] = target: T1, ABCG2; assay: cell-based; set-up: full-length ABCG2-WT in MEF cells; species or system MEF (mouse embryonic fibroblasts) expressing human ABCG2-WT; Inhibition of ABCG2-mediated Hoechst 33342 transport; intracellular Hoechst 33342 fluorescence accumulation; settings: ABCG2-WT, 0.5 uM Hoechst 33342; read-out: Hoechst 33342 transport inhibition IC50
Experimental: The intracellular accumulation of fluorescent Hoechst 33342, pheophorbide a, chlorin e6, and purpurin 18, ABCG2 substrates, was used to determine the function of ABCG2. For Hoechst 33342 accumulation assay, MEFs were seeded into a 96-well black clear bottom plate (Corning #3603) at 20,000 cells/well and 0.5 μM Hoechst 33342, and either [compound left out] or the test inhibitor (0.002–10 μM) were added to the culture medium followed by incubation for 2 h at 37 °C in the dark. Thereafter, the medium was removed, and cells were washed twice with 200 μL ice-cold PBS and the fluorescence of Hoechst 33342 was then quantitatively determined with a Synergy H4 microplate reader (BioTek, Winooski, VT, USA) at an excitation wavelength of 355 nm and an emission wavelength of 460 nm. The accumulation of Hoechst 33342 was normalized to protein concentration as determined using the BCA Protein Assay Kit (Pierce, Rockford, IL, USA). […] The intracellular accumulation of pheophorbide a, purpurin 18, or chlorin e6 was measured at an excitation wavelength of 405 nm and an emission wavelength of 667 nm. […] The total radioactivity was measured by liqu Fig. 4 N436A substitution affects inhibitor interaction. a–d Representative snapshots from MDS of tariquidar interacting with ABCG2. a ABCG2-WT with residues within 4 Å of tariquidar are in surface representation. […]

Compound | IC50 (ABCG2 [1]) [µM] | IC50 (ABCG2 [2]) [µM]
CCCS(=O)(=O)Nc1ccc(F)c(C(=O)c2c[nH]c3ncc(-c4ccc(Cl)cc4)cc23)c1F [Vemurafenib] | 4.15 | 
C#Cc1cccc(Nc2ncnc3cc(OCCOC)c(OCCOC)cc23)c1 [Erlotinib] | 0.77 | 
CNC(=O)c1ccccc1Sc1ccc2c(/C=C/c3ccccn3)n[nH]c2c1 [Axitinib] |  | 6.04

Second part, the compound after the results:

IC50 (ABCG2 [1]) [µM] | IC50 (ABCG2 [2]) [µM] | Compound
2.4 |  | COc1cc2nccc(Oc3ccc(NC(=O)C4(C(=O)Nc5ccc(F)cc5)CC4)cc3)c2cc1OC [Cabozantinib]
4.34 |  | CNC(=O)c1cc(Oc2ccc(NC(=O)Nc3ccc(Cl)c(C(F)(F)F)c3)cc2)ccn1 [Sorafenib]

Reference: publication PMC10439158, “The net electrostatic potential and hydration of ABCG2 affect substrate transport” (Nature Communications, 2023)
